# Experimental data from PubChem BioAssay (NCI).
#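 Test compounds were applied to cells in 96-well plates for 48 hours at 5 doses. GI50 marks 50% less growth. TGI is the concentration that stops growth completely.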
# Tested on: OVCAR-4 ovarian
# Assay: growth of human tumour cells (NCI), 48 h
Compound,GI50,TGI
Cc1[nH][nH]c(=O)c1C=Nc1ccc(-c2nc3ccccc3[nH]2)cc1,24.4 µM,76.5 µM
O=c1c(-c2ccccc2)c(SCCCN2CCN(c3cccc(Cl)c3)CC2)n(-c2ccccc2)c(=S)n1-c1ccccc1,,> 100 µM

# Tested on: A498 renal
# Assay: growth of human tumour cells (NCI), 48 h
Compound,GI50,TGI
CCN1C(=O)N(CC)C2C1NC(=S)N2/N=C/C=C/c1cccs1 (configuration not stated),85.5 nM,539 nM
O=c1c(-c2ccccc2)c(SCCCN2CCN(c3cccc(Cl)c3)CC2)n(-c2ccccc2)c(=S)n1-c1ccccc1,,> 100000 nM

# Tested on: NCI/ADR-RES ovarian
# Assay: growth of human tumour cells (NCI), 48 h
Compound,GI50,TGI
CCN1C(=O)N(CC)C2C1NC(=S)N2/N=C/C=C/c1cccs1 (configuration not stated),296 nM,> 100 µM
Cc1ccc(N(CSc2ccc(Cl)cc2)CSc2ccc(Cl)cc2)cc1,1380 nM,9.04 µM
O=c1c(-c2ccccc2)c(SCCCN2CCN(c3cccc(Cl)c3)CC2)n(-c2ccccc2)c(=S)n1-c1ccccc1,,> 100 µM

# Tested on: HOP-92 NSCLC
# Assay: growth of human tumour cells (NCI), 48 h
Compound,GI50,TGI
CCN1C(=O)N(CC)C2C1NC(=S)N2/N=C/C=C/c1cccs1 (configuration not stated),13.4 µM,> 100 µM
Cc1ccc(N(CSc2ccc(Cl)cc2)CSc2ccc(Cl)cc2)cc1,1.3 µM,6.73 µM
Cc1[nH][nH]c(=O)c1C=Nc1ccc(-c2nc3ccccc3[nH]2)cc1,> 100 µM,> 100 µM
O=c1c(-c2ccccc2)c(SCCCN2CCN(c3cccc(Cl)c3)CC2)n(-c2ccccc2)c(=S)n1-c1ccccc1,,> 100 µM

# Tested on: MDA-MB-231 breast
# Assay: growth of human tumour cells (NCI), 48 h
Compound,GI50,TGI
CCN1C(=O)N(CC)C2C1NC(=S)N2/N=C/C=C/c1cccs1 (configuration not stated),648 nM,> 100 µM
Cc1ccc(N(CSc2ccc(Cl)cc2)CSc2ccc(Cl)cc2)cc1,404 nM,2.5 µM
Cc1[nH][nH]c(=O)c1C=Nc1ccc(-c2nc3ccccc3[nH]2)cc1,12800 nM,33.8 µM
O=c1c(-c2ccccc2)c(SCCCN2CCN(c3cccc(Cl)c3)CC2)n(-c2ccccc2)c(=S)n1-c1ccccc1,,> 100 µM

# Tested on: MOLT-4 leukemia
# Assay: growth of human tumour cells (NCI), 48 h
Compound,GI50,TGI
CCN1C(=O)N(CC)C2C1NC(=S)N2/N=C/C=C/c1cccs1 (configuration not stated),620 nM,> 100 µM
Cc1ccc(N(CSc2ccc(Cl)cc2)CSc2ccc(Cl)cc2)cc1,381 nM,2.63 µM
Cc1[nH][nH]c(=O)c1C=Nc1ccc(-c2nc3ccccc3[nH]2)cc1,52000 nM,> 100 µM
O=c1c(-c2ccccc2)c(SCCCN2CCN(c3cccc(Cl)c3)CC2)n(-c2ccccc2)c(=S)n1-c1ccccc1,,> 100 µM

# Tested on: HCT-15 colon
# Assay: growth of human tumour cells (NCI), 48 h
Compound,GI50,TGI
CCN1C(=O)N(CC)C2C1NC(=S)N2/N=C/C=C/c1cccs1 (configuration not stated),307 nM,> 100 µM
Cc1ccc(N(CSc2ccc(Cl)cc2)CSc2ccc(Cl)cc2)cc1,2120 nM,15.3 µM
Cc1[nH][nH]c(=O)c1C=Nc1ccc(-c2nc3ccccc3[nH]2)cc1,22000 nM,55.6 µM
O=c1c(-c2ccccc2)c(SCCCN2CCN(c3cccc(Cl)c3)CC2)n(-c2ccccc2)c(=S)n1-c1ccccc1,,> 100 µM

# Tested on: NCI-H460 lung
# Assay: growth of human tumour cells (NCI), 48 h
Compound,GI50,TGI
CCN1C(=O)N(CC)C2C1NC(=S)N2/N=C/C=C/c1cccs1 (configuration not stated),363 nM,> 100 µM
Cc1ccc(N(CSc2ccc(Cl)cc2)CSc2ccc(Cl)cc2)cc1,575 nM,> 100 µM
Cc1[nH][nH]c(=O)c1C=Nc1ccc(-c2nc3ccccc3[nH]2)cc1,33300 nM,> 100 µM
O=c1c(-c2ccccc2)c(SCCCN2CCN(c3cccc(Cl)c3)CC2)n(-c2ccccc2)c(=S)n1-c1ccccc1,,> 100 µM

# Tested on: K-562 leukemia
# Assay: growth of human tumour cells (NCI), 48 h
Compound,GI50,TGI
CCN1C(=O)N(CC)C2C1NC(=S)N2/N=C/C=C/c1cccs1 (configuration not stated),0.263 µM,> 100 µM
Cc1[nH][nH]c(=O)c1C=Nc1ccc(-c2nc3ccccc3[nH]2)cc1,27.4 µM,87.2 µM
O=c1c(-c2ccccc2)c(SCCCN2CCN(c3cccc(Cl)c3)CC2)n(-c2ccccc2)c(=S)n1-c1ccccc1,,> 100 µM

# Tested on: COLO 205 colon
# Assay: growth of human tumour cells (NCI), 48 h
Compound,GI50,TGI
CCN1C(=O)N(CC)C2C1NC(=S)N2/N=C/C=C/c1cccs1 (configuration not stated),267 nM,1.17 µM
Cc1ccc(N(CSc2ccc(Cl)cc2)CSc2ccc(Cl)cc2)cc1,1840 nM,3.38 µM
Cc1[nH][nH]c(=O)c1C=Nc1ccc(-c2nc3ccccc3[nH]2)cc1,19500 nM,48.1 µM
O=c1c(-c2ccccc2)c(SCCCN2CCN(c3cccc(Cl)c3)CC2)n(-c2ccccc2)c(=S)n1-c1ccccc1,,> 100 µM

# Tested on: HL-60(TB) leukemia
# Assay: growth of human tumour cells (NCI), 48 h
Compound,GI50,TGI
CCN1C(=O)N(CC)C2C1NC(=S)N2/N=C/C=C/c1cccs1 (configuration not stated),281 nM,0.857 µM
Cc1ccc(N(CSc2ccc(Cl)cc2)CSc2ccc(Cl)cc2)cc1,1650 nM,3.65 µM
Cc1[nH][nH]c(=O)c1C=Nc1ccc(-c2nc3ccccc3[nH]2)cc1,22600 nM,> 100 µM
O=c1c(-c2ccccc2)c(SCCCN2CCN(c3cccc(Cl)c3)CC2)n(-c2ccccc2)c(=S)n1-c1ccccc1,,> 100 µM

# Tested on: A549 NSCLC
# Assay: growth of human tumour cells (NCI), 48 h
Compound,GI50,TGI
CCN1C(=O)N(CC)C2C1NC(=S)N2/N=C/C=C/c1cccs1 (configuration not stated),508 nM,> 100 µM
Cc1ccc(N(CSc2ccc(Cl)cc2)CSc2ccc(Cl)cc2)cc1,448 nM,> 100 µM
Cc1[nH][nH]c(=O)c1C=Nc1ccc(-c2nc3ccccc3[nH]2)cc1,42900 nM,> 100 µM

# Tested on: SF-539 CNS
# Assay: growth of human tumour cells (NCI), 48 h
Compound,GI50,TGI
CCN1C(=O)N(CC)C2C1NC(=S)N2/N=C/C=C/c1cccs1 (configuration not stated),226 nM,666 nM
Cc1ccc(N(CSc2ccc(Cl)cc2)CSc2ccc(Cl)cc2)cc1,1020 nM,2590 nM
Cc1[nH][nH]c(=O)c1C=Nc1ccc(-c2nc3ccccc3[nH]2)cc1,22200 nM,41600 nM
O=c1c(-c2ccccc2)c(SCCCN2CCN(c3cccc(Cl)c3)CC2)n(-c2ccccc2)c(=S)n1-c1ccccc1,,> 100000 nM

# Tested on: OVCAR-8 ovarian
# Assay: growth of human tumour cells (NCI), 48 h
Compound,GI50,TGI
CCN1C(=O)N(CC)C2C1NC(=S)N2/N=C/C=C/c1cccs1 (configuration not stated),548 nM,> 100 µM
Cc1ccc(N(CSc2ccc(Cl)cc2)CSc2ccc(Cl)cc2)cc1,1550 nM,> 100 µM
Cc1[nH][nH]c(=O)c1C=Nc1ccc(-c2nc3ccccc3[nH]2)cc1,20700 nM,54.6 µM
O=c1c(-c2ccccc2)c(SCCCN2CCN(c3cccc(Cl)c3)CC2)n(-c2ccccc2)c(=S)n1-c1ccccc1,,> 100 µM

# Tested on: SF-295 CNS
# Assay: growth of human tumour cells (NCI), 48 h
Compound,GI50,TGI
CCN1C(=O)N(CC)C2C1NC(=S)N2/N=C/C=C/c1cccs1 (configuration not stated),258 nM,> 100 µM
Cc1ccc(N(CSc2ccc(Cl)cc2)CSc2ccc(Cl)cc2)cc1,375 nM,2.6 µM
Cc1[nH][nH]c(=O)c1C=Nc1ccc(-c2nc3ccccc3[nH]2)cc1,18400 nM,42.3 µM
O=c1c(-c2ccccc2)c(SCCCN2CCN(c3cccc(Cl)c3)CC2)n(-c2ccccc2)c(=S)n1-c1ccccc1,,> 100 µM
